pKi: −log10 of the molar value.
How the values were obtained:
[1] = target: T1, human recombinant CHRM3 receptor (Homo sapiens, UniProt P20309); experiment: Radioligand binding assay, CHRM3; conditions: [3H]4-DAMP (0.2 nM), CHO cell membranes, 60 minutes at room temperature; read-out: Ki M3
T1 construct: expressed in transfected cells; host or cells: CHO cells (membranes)
Protocol: PD102807 and Compounds A-K at concentrations of 1×10^−9 M, 1×10^−8 M, 1×10^−7 M, 1×10^−6 M, and 1×10^−5 M were tested in standard binding assays with radioligands and cell membranes with receptors. Compound binding was calculated as a percent inhibition of the binding of a radioactively labeled ligand specific for each target, and the Ki values were determined. For CHRM1, the binding assay was performed using [^3H]pirenzepine (2 nM) as a radioligand and membranes of CHO cells with human recombinant CHRM1 receptor. The incubation time was 60 minutes at room temperature. For CHRM2, the binding assay was performed using [^3H]AF-DX 384 (2 nM) as a radioligand and membranes of CHO cells with human recombinant CHRM2 receptor. The incubation time was also 60 minutes at room temperature. For CHRM3, the binding assay was performed using [^3H]4-DAMP (0.2 nM) as a radioligand and membranes of CHO cells with human recombinant CHRM3 receptor. The incubation time was also 60 minutes at room temperature. For CHRM4, the binding assay was performed using [^3H]4-DAMP (0.2 nM) as a radioligand and membranes of CHO cells with human recombinant CHRM4 receptor. The incubation time was also 60 minutes at room temperature. For CHRM5, the binding assay was performed using [^3H]4-DAMP (0.3 nM) as a radioligand and membranes of CHO cells with human recombinant CHRM5 receptor. The incubation time was also 60 minutes at room temperature.

[2] = target: T2, human recombinant CHRM2 receptor (Homo sapiens, UniProt P08172); experiment: Radioligand binding assay, CHRM2; conditions: [3H]AF-DX 384 (2 nM), CHO cell membranes, 60 minutes at room temperature; read-out: Ki M2
T2 construct: expressed in transfected cells; host or cells: CHO cells (membranes)
T2 sequence (P08172 1-466): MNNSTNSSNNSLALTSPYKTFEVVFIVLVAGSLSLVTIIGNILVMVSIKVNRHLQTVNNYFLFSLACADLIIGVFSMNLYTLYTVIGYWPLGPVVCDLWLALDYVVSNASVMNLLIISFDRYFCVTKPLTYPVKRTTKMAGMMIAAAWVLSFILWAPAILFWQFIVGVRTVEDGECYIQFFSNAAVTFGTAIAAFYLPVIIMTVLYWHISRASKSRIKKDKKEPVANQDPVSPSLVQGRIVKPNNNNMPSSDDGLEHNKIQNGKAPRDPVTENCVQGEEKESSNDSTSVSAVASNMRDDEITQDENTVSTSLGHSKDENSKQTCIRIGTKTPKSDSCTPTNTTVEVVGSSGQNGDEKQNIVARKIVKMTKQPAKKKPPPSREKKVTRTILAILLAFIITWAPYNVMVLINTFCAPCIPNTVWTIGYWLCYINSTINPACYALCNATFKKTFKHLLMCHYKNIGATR
Procedure, shortened: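 Membranes from CHO cells expressing each human recombinant receptor; radioligands [^3H]pirenzepine (2 nM) for CHRM1, [^3H]AF-DX 384 (2 nM) for CHRM2, [^3H]4-DAMP at 0.2 nM for CHRM3 and 0.3 nM for CHRM5. Compounds at 1×10^−9 to 1×10^−5 M; 60 min, room temperature. Percent inhibition of radioligand binding; Ki determined.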

Mouse BFU-Es = experiment: Primary mouse BFU-E culture assay (cell expansion); assay type: cell-based
Protocol: Primary mouse BFU-Es were isolated from mouse embryonic day 14.5 (E14.5) fetal liver and cultured in StemSpan serum-free expansion medium, and the numbers of cells formed were counted during culture. BFU-Es were infected with either viruses encoding control shRNA or viruses encoding shRNAs targeting Chrm4, and numbers of GFP+ cells formed during culture were counted. DMSO or 25 mg/kg oxyphenonium bromide was intraperitoneally injected into the hemolysis mouse model, Mx1-cre Srsf2 P95H/WT MDS mouse model, and aging mouse model. Complete blood count (CBC) was performed after compound injection. CREB ChIP-Seq was performed on BFU-Es after culture with 100 μM oxyphenonium bromide for 45 minutes. RNA-Seq was performed in BFU-Es after being cultured with DMSO or oxyphenonium bromide for 3 days.
BFU-Es were isolated from mouse embryonic day 14.5 fetal liver using fluorescence-activated cell sorting (FACS) method previously described (Flygare et al., Blood 117, 3435-3444 (2011)). BFU-Es were cultured in StemSpan SFEM II medium containing rmSCF (100 ng/ml), EPO (2 U/ml), rmIGF-1 (40 ng/ml), dexamethasone (1 nmol/ml or 10 nmol/ml), oxyphenonium bromide ([…]), and orphenadrine citrate (1 μmol/ml).
BFU-Es were isolated from mouse embryonic day 14.5 fetal liver using fluorescence-activated cell sorting (FACS) method. BFU-Es were cultured in StemSpan SFEM II medium containing rmSCF (100 ng/ml), EPO (2 U/ml), rmIGF-1 (40 ng/ml), dexamethasone (1 nM), together with either DMSO, PCS1055 (5 nM), or PD102807 (3 nM). Numbers of cell formed were counted during in vitro culture.
FIGS. 7 and 8 show the results of the primary BFU-E culture assay. […] Highly purified BFU-Es were isolated as lin-Ter-119-CD16/CD32-Sca-1-CD41-c-Kit+CD71/Cd24a^10% low population using the fluorescence-activated cell sorting (FACS) method. BFU-Es were cultured in medium containing rmSCF, EPO, and rmIGF-1, in the presence of PD102807 or Compounds A-K at indicated concentrations.

[3] = tested on: PHZ induced hemolytic anemia in C57bl/6 mice; experiment: PHZ induced hemolytic anemia mouse model, CBC; assay type: in vivo; conditions: 100 mg/kg oral once per day, CBC on day 6, vs DMSO control
Protocol: Animal experiments were conducted in the Cold Spring Harbor Laboratory Animal Shared Resource in accordance with Institutional Animal Care and Use Committee-approved procedures. 4-6 weeks old C57bl/6 mice, purchased from Jackson Laboratory and randomly distributed into compound and control treatment groups, were given through oral delivery of PCS1055 (50 mg/kg or 100 mg/kg) twice per day or PD102807 (50 mg/kg or 100 mg/kg) once per day everyday for 3 days. On day 3, mice were intraperitoneally injected with 60 mg/kg PHZ. Mice were then given through oral delivery of PD102807 (50 mg/kg or 100 mg/kg) once per day every day for 2 days. Peripheral blood samples were collected retro-orbitally on day 6 using heparinized capillary tubes in blood collection tubes with K2-EDTA. CBC was performed using Hemavet 950. […] C57bl/6 mice were injected with 60 mg/kg phenylhydrazine to induce hemolysis. Mice were delivered with either vehicle control or Compound A or B (30 mg/kg or 100 mg/kg). Peripheral blood samples were collected retro-orbitally using heparinized capillary tubes into blood collection tubes with K2-EDTA. Complete blood counting was performed using Hemavet 950. Hematocrit (HCT), red blood cell (RBC) and hemoglobin (Hb) values are shown. […] C57bl/6 mice were injected with 60 mg/kg phenylhydrazine to induce hemolysis. Mice were delivered with subcutaneous injection with either vehicle control or Compound B (1.5 mg/kg, 3 mg/kg, or 5 mg/kg) or I (0.5 mg/kg, 0.7 mg/kg, or 1 mg/kg). Peripheral blood samples were collected retro-orbitally using heparinized capillary tubes into blood collection tubes with K2-EDTA. Complete blood counting was performed using Hemavet 950. Hematocrit (HCT), red blood cell (RBC) and hemoglobin (Hb) values are shown.

CHRM4 [4] = target: T3, CHRM4 (Homo sapiens, UniProt P08173); conditions: previous reports (Croy 2016; Böhme 2002); cited from earlier work
T3 sequence (P08173 1-479): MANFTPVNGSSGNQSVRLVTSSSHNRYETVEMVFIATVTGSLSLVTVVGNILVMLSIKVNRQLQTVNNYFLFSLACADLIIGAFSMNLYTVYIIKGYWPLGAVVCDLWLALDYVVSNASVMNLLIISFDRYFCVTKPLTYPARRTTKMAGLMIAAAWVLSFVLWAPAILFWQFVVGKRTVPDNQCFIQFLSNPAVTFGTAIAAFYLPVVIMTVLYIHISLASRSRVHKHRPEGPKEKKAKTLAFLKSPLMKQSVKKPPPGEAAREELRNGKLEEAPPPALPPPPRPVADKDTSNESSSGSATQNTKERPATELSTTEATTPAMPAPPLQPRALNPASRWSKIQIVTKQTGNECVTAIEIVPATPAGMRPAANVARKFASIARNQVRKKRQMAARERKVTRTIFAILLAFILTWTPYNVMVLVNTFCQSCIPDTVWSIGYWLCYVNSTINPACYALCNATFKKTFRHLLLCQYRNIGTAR

CHRM4 [5] = target: T3, CHRM4; experiment: Radioligand binding assay, CHRM4; design: expressed in transfected cells; host or cells: CHO cells (membranes); conditions: [3H]4-DAMP (0.2 nM), CHO cell membranes, 60 minutes at room temperature; read-out: Ki M4

T1 sequence (P20309 whole entry): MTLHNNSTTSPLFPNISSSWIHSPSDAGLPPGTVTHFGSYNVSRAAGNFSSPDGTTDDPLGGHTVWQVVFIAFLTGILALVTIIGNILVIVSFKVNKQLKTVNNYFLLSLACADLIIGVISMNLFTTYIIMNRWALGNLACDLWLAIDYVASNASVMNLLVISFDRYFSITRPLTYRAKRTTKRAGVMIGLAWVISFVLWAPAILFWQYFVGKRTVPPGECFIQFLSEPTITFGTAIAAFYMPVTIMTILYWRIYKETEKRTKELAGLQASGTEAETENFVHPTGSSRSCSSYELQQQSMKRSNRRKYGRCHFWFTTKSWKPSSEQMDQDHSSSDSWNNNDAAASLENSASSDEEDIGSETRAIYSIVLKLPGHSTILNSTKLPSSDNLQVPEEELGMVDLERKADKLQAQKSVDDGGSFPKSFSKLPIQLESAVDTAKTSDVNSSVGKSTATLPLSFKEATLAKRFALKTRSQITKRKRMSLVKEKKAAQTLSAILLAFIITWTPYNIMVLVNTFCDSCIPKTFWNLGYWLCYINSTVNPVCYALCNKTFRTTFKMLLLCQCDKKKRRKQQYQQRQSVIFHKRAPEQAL

## CCOC(=O)c1c(C)[nH]c2ccc3c(c12)CN1CCc2cc(OC)ccc2C1O3 (centres unmarked) [PD102807, reference compound]
[1]
  pKi: 6.68
[2]
  pKi: 5.60
Mouse BFU-Es; 3 nM PD102807
  expansion of BFU-E cells in cell culture: increase the expansion of BFU-E cells
Mouse BFU-Es; indicated concentrations, vs untreated
  BFU-E expansion, cell numbers at day 9: induce BFU-E expansion
[3]
  HCT, PHZ-induced anemia: significantly improved
  RBC, PHZ-induced anemia: significantly improved
CHRM4 [4]
  selectivity for CHRM4 over other muscarinic acetylcholine receptor family members: selectively inhibits CHRM4
CHRM4 [5]
  pKi: 8.29

— patent US12497411B2, “Muscarinic acetylcholine receptor subtype 4 antagonists in the treatment of anemia” (COLD SPRING HARBOR LABORATORY, priority 2019, dated 2025)
